Source: ChEMBL document CHEMBL5096191 (J Med Chem, 2021)

What was measured:
Format in all cases: functional, cell-based
Cannabinoid receptor 2 [1] = target: T1, Cannabinoid receptor 2 (Homo sapiens, UniProt P34972); assay: Partial agonist activity at wild type CB2 receptor (unknown origin) stably expressed in HEK293T assessed as decrease in forskolin induced cAMP level preincubated for 15 mins followed by forskolin addition incubated for 15 mins by HTRF assay
Cannabinoid receptor 2 [2] = target: T1, Cannabinoid receptor 2; assay: Partial agonist activity at wild type CB2 receptor (unknown origin) stably expressed in HEK293T assessed as decrease in forskolin induced cAMP level preincubated for 15 mins followed by forskolin addition incubated for 15 mins in presence of cannabidiol by HTRF assay
[3] = tested on: Cannabinoid receptor 2 (Homo sapiens), P34972 [V113M]; assay: Partial agonist activity at CBR2 V1133.32M mutant (unknown origin) stably expressed in HEK293T assessed as decrease in forskolin induced cAMP level preincubated for 15 mins followed by forskolin addition incubated for 15 mins in presence of cannabidiol by HTRF assay relative to control; settings: filed as partial agonist, time 30.0 min
Cannabinoid receptor 2 (Homo sapiens), P34972 [V113M], sequence (P34972 whole entry V113M): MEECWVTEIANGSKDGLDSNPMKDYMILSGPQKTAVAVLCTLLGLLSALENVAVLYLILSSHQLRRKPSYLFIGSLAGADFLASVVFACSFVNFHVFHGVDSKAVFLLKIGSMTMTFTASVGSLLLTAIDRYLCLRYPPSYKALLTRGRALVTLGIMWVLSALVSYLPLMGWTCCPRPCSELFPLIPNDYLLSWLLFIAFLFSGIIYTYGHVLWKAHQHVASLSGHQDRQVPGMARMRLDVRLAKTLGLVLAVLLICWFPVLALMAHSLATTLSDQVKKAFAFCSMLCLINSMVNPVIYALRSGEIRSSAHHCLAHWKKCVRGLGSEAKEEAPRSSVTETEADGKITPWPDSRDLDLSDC

Cannabinoid receptor 2 [4] = target: Cannabinoid receptor 2 (Homo sapiens, UniProt P34972, V36M); assay: Partial agonist activity at CBR2 V361.35M mutant (unknown origin) stably expressed in HEK293T assessed as decrease in forskolin induced cAMP level preincubated for 15 mins followed by forskolin addition incubated for 15 mins in presence of cannabidiol by HTRF assay
Cannabinoid receptor 2 (Homo sapiens, UniProt P34972, V36M), sequence (P34972 whole entry V36M): as the sequence (P34972 whole entry V113M) above, with V36M, M113V counted along it

[5] = tested on: Cannabinoid receptor 2 (Homo sapiens), P34972 [A282M]; assay: Partial agonist activity at CBR2 A2827.36M mutant (unknown origin) stably expressed in HEK293T assessed as decrease in forskolin induced cAMP level preincubated for 15 mins followed by forskolin addition incubated for 15 mins by HTRF assay relative to control; settings: filed as partial agonist, time 30.0 min
Cannabinoid receptor 2 (Homo sapiens), P34972 [A282M], sequence (P34972 whole entry A282M): as the sequence (P34972 whole entry V113M) above, with M113V, A282M counted along it

[6] = tested on: Cannabinoid receptor 2 (Homo sapiens), P34972 [A282M]; assay: Partial agonist activity at CBR2 A2827.36M mutant (unknown origin) stably expressed in HEK293T assessed as decrease in forskolin induced cAMP level preincubated for 15 mins followed by forskolin addition incubated for 15 mins in presence of cannabidiol by HTRF assay relative to control; settings: filed as partial agonist, time 30.0 min
Cannabinoid receptor 2 [7] = target: T2, Cannabinoid receptor 2 (Homo sapiens, UniProt P34972, S285L); assay: Partial agonist activity at CBR2 S2857.39L mutant (unknown origin) stably expressed in HEK293T assessed as decrease in forskolin induced cAMP level preincubated for 15 mins followed by forskolin addition incubated for 15 mins by HTRF assay
T2 sequence (P34972 whole entry S285L): as the sequence (P34972 whole entry V113M) above, with M113V, S285L counted along it

[8] = tested on: Cannabinoid receptor 2 (Homo sapiens), P34972 [S285L]; assay: Partial agonist activity at CBR2 S2857.39L mutant (unknown origin) stably expressed in HEK293T assessed as decrease in forskolin induced cAMP level preincubated for 15 mins followed by forskolin addition incubated for 15 mins by HTRF assay relative to control; settings: filed as partial agonist, time 30.0 min
Cannabinoid receptor 2 (Homo sapiens), P34972 [S285L], sequence (P34972 whole entry S285L): as the sequence (P34972 whole entry V113M) above, with M113V, S285L counted along it

Cannabinoid receptor 2 [9] = target: T1, Cannabinoid receptor 2; assay: Partial agonist activity at wild type CB2 receptor (unknown origin) expressed in HEK293T assessed as increase in ERK1/2 phosphorylation incubated for 7 mins by AlphaScreenSureFire method
Cannabinoid receptor 2 [10] = target: T1, Cannabinoid receptor 2; assay: Partial agonist activity at wild type CB2 receptor (unknown origin) expressed in HEK293T assessed as increase in ERK1/2 phosphorylation incubated for 7 mins by AlphaScreenSureFire method relative to control; settings: filed as partial agonist
Cannabinoid receptor 2 [11] = target: Cannabinoid receptor 2 (Homo sapiens, UniProt P34972, V113M); assay: Partial agonist activity at CBR2 V1133.32M mutant (unknown origin) expressed in HEK293T assessed as increase in ERK1/2 phosphorylation incubated for 7 mins by AlphaScreenSureFire method
Cannabinoid receptor 2 (Homo sapiens, UniProt P34972, V113M), sequence (P34972 whole entry V113M): as the sequence (P34972 whole entry V113M) above

[12] = tested on: Cannabinoid receptor 2 (Homo sapiens), P34972 [V36M]; assay: Partial agonist activity at CBR2 V361.35M mutant (unknown origin) expressed in HEK293T assessed as increase in ERK1/2 phosphorylation incubated for 7 mins by AlphaScreenSureFire method relative to control; settings: filed as partial agonist
Cannabinoid receptor 2 (Homo sapiens), P34972 [V36M], sequence (P34972 whole entry V36M): as the sequence (P34972 whole entry V113M) above, with V36M, M113V counted along it

[13] = tested on: Cannabinoid receptor 2 (Homo sapiens), P34972 [V36M]; assay: Partial agonist activity at CBR2 V361.35M mutant (unknown origin) expressed in HEK293T assessed as increase in ERK1/2 phosphorylation incubated for 7 mins in presence of cannabidiol by AlphaScreenSureFire method relative to control; settings: filed as partial agonist
Cannabinoid receptor 2 [14] = target: Cannabinoid receptor 2 (Homo sapiens, UniProt P34972, A282M); assay: Partial agonist activity at CBR2 A2827.36M mutant (unknown origin) expressed in HEK293T assessed as increase in ERK1/2 phosphorylation incubated for 7 mins in presence of cannabidiol by AlphaScreenSureFire method
Cannabinoid receptor 2 (Homo sapiens, UniProt P34972, A282M), sequence (P34972 whole entry A282M): as the sequence (P34972 whole entry V113M) above, with M113V, A282M counted along it

Cannabinoid receptor 2 [15] = target: T1, Cannabinoid receptor 2; assay: Positive allosteric modulation of JWH-133-induced agonist activity at wild type CB2 receptor (unknown origin) stably expressed in HEK293T cells assessed as inhibition of forskolin-stimulated cAMP levels preincubated for 15 mins followed by forskolin addition incubated for 15 mins by HTRF assay relative to control; settings: filed as positive allosteric modulator, time 30.0 min
[16] = tested on: Cannabinoid receptor 2 (Homo sapiens), P34972 [A282M]; assay: Partial agonist activity at CBR2 A2827.36M mutant (unknown origin) expressed in HEK293T assessed as increase in ERK1/2 phosphorylation incubated for 7 mins by AlphaScreenSureFire method relative to control; settings: filed as partial agonist
[17] = tested on: Cannabinoid receptor 2 (Homo sapiens), P34972 [A282M]; assay: Partial agonist activity at CBR2 A2827.36M mutant (unknown origin) expressed in HEK293T assessed as increase in ERK1/2 phosphorylation incubated for 7 mins in presence of cannabidiol by AlphaScreenSureFire method relative to control; settings: filed as partial agonist
Cannabinoid receptor 2 [18] = target: T2, Cannabinoid receptor 2; assay: Partial agonist activity at CBR2 S2857.39L mutant (unknown origin) expressed in HEK293T assessed as increase in ERK1/2 phosphorylation incubated for 7 mins in presence of cannabidiol by AlphaScreenSureFire method
[19] = tested on: Cannabinoid receptor 2 (Homo sapiens), P34972 [S285L]; assay: Partial agonist activity at CBR2 S2857.39L mutant (unknown origin) expressed in HEK293T assessed as increase in ERK1/2 phosphorylation incubated for 7 mins in presence of cannabidiol by AlphaScreenSureFire method relative to control; settings: filed as partial agonist
[20] = tested on: Cannabinoid receptor 2 (Homo sapiens), P34972 [V113M]; assay: Partial agonist activity at CBR2 V1133.32M mutant (unknown origin) expressed in HEK293T assessed as increase in picometer shifts of reflected light wavelengths by DMR assay relative to control; settings: filed as partial agonist
[21] = tested on: Cannabinoid receptor 2 (Homo sapiens), P34972 [V113M]; assay: Partial agonist activity at CBR2 V1133.32M mutant (unknown origin) expressed in HEK293T assessed as increase in picometer shifts of reflected light wavelengths in presence of cannabidiol by DMR assay relative to control; settings: filed as partial agonist
[22] = tested on: Cannabinoid receptor 2 (Homo sapiens), P34972 [V36M]; assay: Partial agonist activity at CBR2 V361.35M mutant (unknown origin) expressed in HEK293T assessed as increase in picometer shifts of reflected light wavelengths in presence of cannabidiol by DMR assay relative to control; settings: filed as partial agonist
[23] = tested on: Cannabinoid receptor 2 (Homo sapiens), P34972 [A282M]; assay: Partial agonist activity at CBR2 A2827.36M mutant (unknown origin) expressed in HEK293T assessed as increase in picometer shifts of reflected light wavelengths by DMR assay relative to control; settings: filed as partial agonist
[24] = tested on: Cannabinoid receptor 2 (Homo sapiens), P34972 [A282M]; assay: Partial agonist activity at CBR2 A2827.36M mutant (unknown origin) expressed in HEK293T assessed as increase in picometer shifts of reflected light wavelengths in presence of cannabidiol by DMR assay relative to control; settings: filed as partial agonist
[25] = tested on: Cannabinoid receptor 2 (Homo sapiens), P34972 [S285L]; assay: Partial agonist activity at CBR2 S2857.39L mutant (unknown origin) expressed in HEK293T assessed as increase in picometer shifts of reflected light wavelengths by DMR assay relative to control; settings: filed as partial agonist
[26] = tested on: Cannabinoid receptor 2 (Homo sapiens), P34972 [S285L]; assay: Partial agonist activity at CBR2 S2857.39L mutant (unknown origin) expressed in HEK293T assessed as increase in picometer shifts of reflected light wavelengths in presence of cannabidiol by DMR assay relative to control; settings: filed as partial agonist

T1 sequence (P34972 whole entry): as the sequence (P34972 whole entry V113M) above, with M113V counted along it

CCCC(C)(C)c1cc(O)c2c(c1)OC(C)(C)[C@@H]1CC=C(C)C[C@@H]21
EC50 (Cannabinoid receptor 2 [1]): 31.6 nM | EC50 (Cannabinoid receptor 2 [2]): 50.1 nM | Emax [3]: 77.8% | EC50 (Cannabinoid receptor 2 [4]): 15.8 nM | Emax [5]: 45.4% | Emax [6]: 48.8% | EC50 (Cannabinoid receptor 2 [7]): 39.8 nM | Emax [8]: 49.3% | EC50 (Cannabinoid receptor 2 [9]): 7.94 nM | Emax (Cannabinoid receptor 2 [10]): 322% | EC50 (Cannabinoid receptor 2 [11]): 20 nM | Emax [12]: 363% | Emax [13]: 353% | EC50 (Cannabinoid receptor 2 [14]): 12.6 nM | Emax (Cannabinoid receptor 2 [15]): 56% | Emax [16]: 376% | Emax [17]: 352% | EC50 (Cannabinoid receptor 2 [18]): 31.6 nM | Emax [19]: 291% | Emax [20]: 79.9% | Emax [21]: 71.9% | Emax [22]: 200% | Emax [23]: 199% | Emax [24]: 189% | Emax [25]: 223% | Emax [26]: 165%
